Calls of active or inactive are those of the source. The calls are words filed in the database; no cut-off is given here.
Assays:
[1] = test system: Peritoneal macrophage; assay: Cytotoxicity against BALB/c mouse peritoneal macrophages assessed as reduction in cell viability at 20 ug incubated for 48 hrs by MTT assay; assay type: toxicity, cell-based; conditions: dose 20 µg
[2] = biological target: Nucleotide-binding oligomerization domain-containing protein 2 (Homo sapiens) (UniProt Q9HC29); assay: Agonist activity at NOD2 in HEK-Blue hNOD2 cells assessed as increase in SEAP activity at 20 ug incubated for 24 hrs by Quanti-blue assay; assay type: cell-based; conditions: filed as agonist, dose 20.0 µg
[3] = test system: Peritoneal macrophage; assay: Immunostimulatory activity in BALB/c mouse peritoneal macrophages assessed as increase in TNF-aplha production at 20 ug incubated for 48 hrs by sandwich ELISA method; assay type: functional, cell-based; conditions: dose 20.0 µg
[4] = Induction of dengue virus antigen-induced immunogenicity in BALB/c mouse assessed as fold change in IgG production treated at 10 ug and booster dosed on 14th day measured after 28 days by ELISA method; assay type: functional; conditions: dose 10 µg; time 28 day
[5] = Induction of dengue virus antigen-induced immunogenicity in BALB/c mouse assessed as fold change in IgG production treated at 20 ug and booster dosed on 14th day measured after 28 days by ELISA method; assay type: functional; conditions: dose 20 µg; time 28 day
[6] = test system: Mus musculus; assay: Induction of dengue virus antigen-induced immunogenicity in BALB/c mouse assessed as […] associated IgG2a production in sera treated at 10 to 30 ug and booster dosed on 14th day measured after 28 days by ELISA method; assay type: functional, organism-based; conditions: dose 10-30 µg, time 28.0 day
[7] = test system: Splenocyte; assay: Induction of dengue virus antigen-induced immunogenicity in BALB/c mouse assessed as increase in CD8+ production in splenocyte treated at 20 ug and booster dosed on 14th day measured after 28 days by ELISA method; assay type: functional, organism-based; conditions: dose 20.0 µg, time 28.0 day
[8] = test system: Splenocyte; assay: Induction of dengue virus antigen-induced immunogenicity in BALB/c mouse assessed as increase in CD4+ production in Splenocyte treated at 20 ug and booster dosed on 14th day measured after 28 days by ELISA method; assay type: functional, organism-based; conditions: dose 20.0 µg, time 28.0 day
[9] = test system: Splenocyte; assay: Induction of dengue virus antigen-induced immunogenicity in BALB/c mouse assessed as increase in CD4+ production in Splenocyte treated at 1 to 30 ug and booster dosed on 14th day measured after 28 days by ELISA method; assay type: functional, organism-based; conditions: dose 1-30 µg, time 28.0 day
[10] = test system: Splenocyte; assay: Induction of Con A-stimulated mouse splenocyte proliferation assessed as increase in T cell population incubated for 48 hrs by MTT assay; assay type: functional, cell-based; conditions: dose 10-20 µg, DDE = dose-dependent effect
[11] = test system: Splenocyte; assay: Induction of LPS-stimulated mouse splenocyte proliferation assessed as increase in B cell population incubated for 48 hrs by MTT assay; assay type: functional, cell-based; conditions: dose 10-20 µg, DDE = dose-dependent effect
[12] = test system: Splenocyte; assay: Induction of dengue virus antigen-induced immunogenicity in BALB/c mouse assessed as increase in CD8+ production in Splenocyte treated at 1 to 30 ug and booster dosed on 14 th day measured after 28 days by ELISA method; assay type: functional, organism-based; conditions: dose 1-30 µg, time 28.0 day
[13] = test system: Mus musculus; assay: Induction of dengue virus antigen-induced immunogenicity in BALB/c mouse assessed as decrease in IFNgamma level booster dosed on 14th day and measured on day 28 after 48 hrs restimulation with antigen by ELISA method; assay type: functional, organism-based; conditions: dose 10-30 µM, time 28.0 day, DDE = dose-dependent effect
[14] = test system: Mus musculus; assay: Induction of dengue virus antigen-induced immunogenicity in BALB/c mouse assessed as increase in IL-2 level booster dosed on 14th day and measured on day 28 after 48 hrs restimulation with antigen by ELISA method; assay type: functional, organism-based; conditions: dose 10-30 µg, time 28.0 day, DDE = dose-dependent effect
[15] = test system: Mus musculus; assay: Induction of dengue virus antigen-induced immunogenicity in BALB/c mouse assessed as increase in IL-4 level booster dosed on 14th day and measured on day 28 after 48 hrs restimulation with antigen by ELISA method; assay type: functional, organism-based; conditions: dose 10-30 µg, time 28.0 day, DDE = dose-dependent effect
[16] = test system: Mus musculus; assay: Induction of dengue virus antigen-induced immunogenicity in BALB/c mouse assessed as increase in IL-1beta level treated at 10 to 20 ug and booster dosed on 14th day and measured on day 28 after 48 hrs restimulation with antigen by ELISA method; assay type: functional, organism-based; conditions: dose 10-20 µg, time 28.0 day

Sequence of Nucleotide-binding oligomerization domain-containing protein 2 (Homo sapiens) (Q9HC29 whole entry, the tested form may be a part): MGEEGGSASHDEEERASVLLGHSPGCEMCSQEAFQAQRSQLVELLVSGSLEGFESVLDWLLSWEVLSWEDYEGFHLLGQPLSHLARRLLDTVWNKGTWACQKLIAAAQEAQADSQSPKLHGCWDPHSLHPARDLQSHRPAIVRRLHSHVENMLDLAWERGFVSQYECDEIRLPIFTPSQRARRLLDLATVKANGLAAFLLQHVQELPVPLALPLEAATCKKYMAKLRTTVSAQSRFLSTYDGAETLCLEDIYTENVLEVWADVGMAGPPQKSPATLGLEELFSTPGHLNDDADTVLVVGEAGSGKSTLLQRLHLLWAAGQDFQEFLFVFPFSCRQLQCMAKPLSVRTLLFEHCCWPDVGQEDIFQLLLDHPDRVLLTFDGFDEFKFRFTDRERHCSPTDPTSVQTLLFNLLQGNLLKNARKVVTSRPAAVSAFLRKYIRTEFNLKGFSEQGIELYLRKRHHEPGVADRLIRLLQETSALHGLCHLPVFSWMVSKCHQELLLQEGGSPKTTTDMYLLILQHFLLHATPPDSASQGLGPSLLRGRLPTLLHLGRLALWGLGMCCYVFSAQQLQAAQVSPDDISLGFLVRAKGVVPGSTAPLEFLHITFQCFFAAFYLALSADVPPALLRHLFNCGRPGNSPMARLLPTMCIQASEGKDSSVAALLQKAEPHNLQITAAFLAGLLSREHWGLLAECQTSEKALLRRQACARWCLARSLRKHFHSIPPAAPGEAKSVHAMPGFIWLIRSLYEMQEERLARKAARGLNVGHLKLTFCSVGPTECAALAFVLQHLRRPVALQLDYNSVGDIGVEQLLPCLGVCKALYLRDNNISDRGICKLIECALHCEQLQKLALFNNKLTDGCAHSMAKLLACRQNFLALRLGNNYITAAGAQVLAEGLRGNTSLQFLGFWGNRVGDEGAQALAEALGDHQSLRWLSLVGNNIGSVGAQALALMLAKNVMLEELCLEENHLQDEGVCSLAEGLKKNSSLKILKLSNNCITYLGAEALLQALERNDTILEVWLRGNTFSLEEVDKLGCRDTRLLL

Row | Activity [2] | SMILES | Activity [1] | Activity [3] | fold change (FC) [4] | fold change (FC) [5] | further results
1 | Active | C[C@H](NC(=O)[C@@H](C)O[C@H]1[C@H](O)[C@@H](CO)O[C@H](OCc2ccccc2)[C@@H]1N=[N+]=[N-])C(=O)N[C@H](CCC(=O)O)C(N)=O | Non-Toxic | Active | – | – | –
2 | Active | CCCCCCCCOC(=O)CC[C@@H](NC(=O)[C@H](C)NC(=O)[C@@H](C)O[C@H]1[C@H](O)[C@@H](CO)O[C@H](OCc2ccccc2)[C@@H]1N=[N+]=[N-])C(N)=O | Non-Toxic | Active | – | – | –
3 | Active | CCCCCCCCCCCCCCOC(=O)CC[C@@H](NC(=O)[C@H](C)NC(=O)[C@@H](C)O[C@H]1[C@H](O)[C@@H](CO)O[C@H](OCc2ccccc2)[C@@H]1N=[N+]=[N-])C(N)=O | Non-Toxic | Active | – | – | –

Further lines, the compound ahead of its results:

Row | SMILES | Activity [2] | Activity [1] | Activity [3] | fold change (FC) [4] | fold change (FC) [5] | further results
4 | C[C@H](NC(=O)[C@@H](C)O[C@H]1[C@H](O)[C@@H](CO)O[C@H](OCc2ccccc2)[C@@H]1N=[N+]=[N-])C(=O)N[C@H](CCC(=O)OCc1ccccc1)C(N)=O | Active | Non-Toxic | Active | 8 | 10 | Activity [6]: Active; Activity [7]: Active; Activity [8]: Active; Activity [9]: Active; Activity [10]: Dde; Activity [11]: Dde; Activity [12]: Active; Activity [13]: Dde; Activity [14]: Dde; Activity [15]: Dde; Activity [16]: Active
5 | C[C@H](NC(=O)[C@@H](C)O[C@@H]1[C@@H](N=[N+]=[N-])[C@@H](OCc2ccccc2)O[C@@H]2CO[C@@H](c3ccccc3)O[C@@H]12)C(=O)N[C@H](CCC(=O)OCc1ccccc1)C(N)=O | Active | Non-Toxic | Active | – | – | –
6 | CC(=O)N[C@H]1C(O)O[C@H](CO)[C@@H](O)[C@@H]1O[C@H](C)C(=O)N[C@@H](C)C(=O)N[C@H](CCC(=O)O)C(N)=O (stereo partly drawn) [MURAMYL DIPEPTIDE] | Active | Non-Toxic | Active | 5 | 5 | –

Reference: ChEMBL document CHEMBL5120872, “Synthesis and biological evaluation of novel 2-azido muramyl dipeptide as NOD2 agonistic adjuvants” (Bioorg Med Chem, 2022)
